ChEMBL document CHEMBL5126542, “Toll-like receptor 4 (TLR4) inhibitors: Current research and prospective” (Eur J Med Chem, 2022)
Converted amounts (≈) assume the structure as drawn.

How the values were obtained:
RAW264.7 [1] = assay: Antiinflammatory activity in mouse RAW264.7 cells assessed as decrease in LPS-induced NO secretion preincubated for 1 hr followed by LPS stimulation and measured after 24 hrs by Griess reagent based assay; assay type: functional, cell-based
RAW264.7 [2] = assay: Antiinflammatory activity in mouse RAW264.7 cells assessed as decrease in LPS-induced TNF-alpha secretion preincubated for 1 hr followed by LPS stimulation and measured after 24 hrs by ELISA; assay type: functional, cell-based
RAW264.7 [3] = assay: Antiinflammatory activity in mouse RAW264.7 cells assessed as decrease in LPS-induced IL-1beta secretion preincubated for 1 hr followed by LPS stimulation and measured after 24 hrs by ELISA; assay type: functional, cell-based
Toll-like receptor 4 [4] = target: T1, Toll-like receptor 4 (Homo sapiens, UniProt O00206); assay: Inhibition of LPS-stimulated TLR4 activation in HEK-Blue-hTLR4 cells assessed as reduction in SEAP release preincubated for 15 mins followed by LPS stimulation and measured after 16 hrs by microplate reader assay; assay type: cell-based
HEK293T = assay: Inhibition of LPS-stimulated human TLR4/MD2 expressed in HEK293T cells assessed as reduction in NF-kappaB activation preincubated for 1 hr followed by LPS stimulation for 8 hrs by luciferase reporter gene assay; assay type: cell-based; conditions: time 9.0 hrs
[5] = Inhibition of LPS-induced NO production in mouse BV-2 microglia cells incubated for 24 hrs by 2,3-diaminonaphthalene assay; assay type: functional, cell-based; conditions: BV-2, 24 h
[6] = Inhibition of TLR4 expression in human monocytes; assay type: functional, cell-based; conditions: Monocyte
Toll-like receptor 4 [7] = target: T1, Toll-like receptor 4; assay: Inhibition of human TLR4 expressed in HEK293-Blue hTLR4 cells assessed as SEAP expression; assay type: cell-based, HEK-Blue hTLR4
Toll-like receptor 4 [8] = target: T1, Toll-like receptor 4; assay: Inhibition of TLR4 in HEK293 cells assessed as reduction in LPS-stimulated NF-kappaB activation at 10 uM incubated for 16 to 24 hrs by SEAP reporter gene assay relative to control; assay type: cell-based; conditions: time 16-24 hrs
[9] = Cytotoxicity against HEK293 cells assessed as cell survival at 10 uM incubated for 16 to 24 hrs by MTT method; assay type: toxicity, cell-based; conditions: human, time 16-24 hrs, read-out: Activity
Toll-like receptor 4 [10] = target: T1, Toll-like receptor 4; assay: Inhibition of TLR4 in HEK293 cells assessed as reduction in LPS-stimulated NF-kappaB activation at 20 uM incubated for 16 to 24 hrs by SEAP reporter gene assay relative to control; assay type: cell-based; conditions: time 16-24 hrs
HEK293 = assay: Cytotoxicity against HEK293 cells assessed as cell survival at 20 uM incubated for 16 to 24 hrs by MTT method; assay type: functional; conditions: Homo sapiens, time 16-24 hrs, read-out: Activity
Liver [11] = assay: Inhibition of CIS-induced TLR4 mRNA expression in rat hepatic tissue by SYBR-green dye based RT-PCR analysis; assay type: functional
Liver [12] = assay: Inhibition of CIS-induced TLR4 protein expression in rat hepatic tissue by Western blot analysis; assay type: functional
Liver [13] = assay: Inhibition of CIS-induced MyD88 mRNA expression in rat hepatic tissue by SYBR-green dye based RT-PCR analysis; assay type: functional
Liver [14] = assay: Inhibition of CIS-induced NF-kappaBp53 mRNA expression in rat hepatic tissue by SYBR-green dye based RT-PCR analysis; assay type: functional
Toll-like receptor 4 [15] = target: T1, Toll-like receptor 4; assay: Binding affinity to TLR4 in human THP-1 monocytes after 48 hrs by ELISA; assay type: cell-based
[16] = Inhibition of HMGB1-induced TLR4 protein expression in mouse primary microglia preincubated for 12 hrs followed by HMGB1 stimulation for 30 mins by Western blot analysis; assay type: functional; conditions: time 12.5 hrs
[17] = Inhibition of LPS-stimulated NO production in mouse RAW264.7 cells at 10 nM incubated for overnight by 2,3-diaminonaphthalene assay relative to control; assay type: functional

T1 sequence (O00206 whole entry): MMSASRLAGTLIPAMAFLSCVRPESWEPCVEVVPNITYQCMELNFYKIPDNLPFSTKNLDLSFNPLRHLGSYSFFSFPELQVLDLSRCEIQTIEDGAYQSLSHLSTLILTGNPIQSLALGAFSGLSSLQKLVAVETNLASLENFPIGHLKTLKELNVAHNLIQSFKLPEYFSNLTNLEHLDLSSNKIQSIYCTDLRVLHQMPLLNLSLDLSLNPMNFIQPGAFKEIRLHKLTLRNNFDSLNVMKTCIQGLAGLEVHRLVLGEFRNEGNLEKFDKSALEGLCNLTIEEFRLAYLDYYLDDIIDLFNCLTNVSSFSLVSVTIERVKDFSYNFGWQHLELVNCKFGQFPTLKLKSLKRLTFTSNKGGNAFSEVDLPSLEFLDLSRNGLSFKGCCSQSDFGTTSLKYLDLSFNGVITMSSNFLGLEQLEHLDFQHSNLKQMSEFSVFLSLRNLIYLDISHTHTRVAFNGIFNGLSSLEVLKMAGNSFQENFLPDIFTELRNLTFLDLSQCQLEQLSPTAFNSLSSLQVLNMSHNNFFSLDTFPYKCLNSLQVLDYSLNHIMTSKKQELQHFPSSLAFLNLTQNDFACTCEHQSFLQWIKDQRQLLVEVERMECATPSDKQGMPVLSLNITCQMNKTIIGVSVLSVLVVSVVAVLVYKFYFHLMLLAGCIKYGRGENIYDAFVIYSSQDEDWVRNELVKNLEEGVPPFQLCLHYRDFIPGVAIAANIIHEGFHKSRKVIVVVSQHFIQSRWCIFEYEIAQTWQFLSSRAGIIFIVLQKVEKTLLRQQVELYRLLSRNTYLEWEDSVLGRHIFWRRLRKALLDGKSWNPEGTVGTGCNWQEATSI

For `COc1ccc(C(C)=O)c(Oc2ccc(NC(=O)/C=C/c3cc(OC)c(OC)c(OC)c3)cc2)c1`, which IC50 (RAW264.7 [1]) is on record?
The IC50 was 6.96 µM.

Which IC50 (RAW264.7 [1]) does the source give for `O=S(=O)(Nc1ccc(C(F)(F)F)cc1)c1cccc2cccnc12` here?
The IC50 was 2.61 µM.

What about the IC50 (RAW264.7 [2]) of the same molecule?
The IC50 was 9.74 µM.

And the IC50 (RAW264.7 [3])?
Its IC50 is 12.7 µM.

With `CCCCC/C=C\C/C=C\CCCCCCC(=O)N[C@H]1[C@H](OC(=O)CCC(=O)O)O[C@H](CO)[C@@H](OC(=O)CCC(=O)O)[C@@H]1OC(=O)CCCCCCCCCCCCC` as the molecule, how does the IC50 (Toll-like receptor 4 [4]) read?
Its IC50 is 6.61 µM.

Which MIC (HEK293T) does the source give for `O=C(/C=C/c1ccc(O)c(O)c1)OCCc1ccccc1` here?
The MIC was 1 µM (≈ 0.284 µg/mL).

For `O=C1CC[C@@]2(O)[C@H]3Cc4ccc(O)c5c4[C@@]2(CCN3CC2CC2)[C@H]1O5` [NALTREXONE], which IC50 [5] is on record?
Its IC50 is 106 µM.

With `CC(=O)N[C@H]1[C@H](Oc2ccc([N+](=O)[O-])cc2)O[C@H](CO)[C@@H](O)[C@@H]1O` as the molecule, how does the IC50 [6] read?
Its IC50 is 0.042 µM.

Which IC50 (Toll-like receptor 4 [4]) does the source give for `CCCCCCCC/C=C\CCCCCCC(=O)N[C@H]1[C@H](OC(=O)CCC(=O)O)O[C@H](CO)[C@@H](OC(=O)CCC(=O)O)[C@@H]1OC(=O)CCCCCC/C=C\CCCCCCCC` here?
Its IC50 is 3.5 µM.

With `COc1ccc(N/C(N)=N/c2ncc(C(=O)c3ccccc3O)cn2)cc1` as the molecule, how does the IC50 (Toll-like receptor 4 [7]) read?
The IC50 was 27 µM.

With `CCCCCCCCC/C=C\CCCCCCC(=O)N[C@H]1[C@H](OC(=O)CCC(=O)O)O[C@H](CO)[C@@H](OC(=O)CCC(=O)O)[C@@H]1OC(=O)CCCCCCCCCCCCC` as the molecule, how does the IC50 (Toll-like receptor 4 [4]) read?
The IC50 was 2.7 µM.

For `C=CC(=O)N(c1ccc(F)cc1Cl)S(=O)(=O)c1ccccc1C(=O)OC`, which inhibition (Toll-like receptor 4 [8]) is on record?
Its inhibition is 100%.

And the viability at 10 µM [9]?
The viability at 10 µM was 88.5%.

For `C=CC(=O)N(c1ccc(F)cc1Cl)S(=O)(=O)N1CCCCC1C(=O)OC` (stereo not drawn), which inhibition (Toll-like receptor 4 [8]) is on record?
Its inhibition is 100%.

What about the viability at 10 µM [9] of the same molecule?
The viability at 10 µM was 92.2%.

With `COc1ccc(C(=O)c2cnc(/N=C(\N)Nc3ccc(F)cc3)nc2)c(O)c1` as the molecule, how does the IC50 (Toll-like receptor 4 [7]) read?
The IC50 was 18 µM.

With `CC(C)Nc1ccc(N2CC[C@]34CCCC[C@H]3[C@H]2Cc2ccc(O)cc24)cc1` as the molecule, how does the inhibition (Toll-like receptor 4 [10]) read?
The inhibition was 99.8%.

And the viability at 20 µM (HEK293)?
The viability at 20 µM was 89.9%.

Which “inhibition (INH)” value (Liver [11]) does the source give for `CC(/C=C/C=C(\C)C(=O)O[C@@H]1O[C@H](CO[C@@H]2O[C@H](CO)[C@@H](O)[C@H](O)[C@H]2O)[C@@H](O)[C@H](O)[C@H]1O)=C\C=C\C=C(C)\C=C\C=C(/C)C(=O)O[C@@H]1O[C@H](CO[C@@H]2O[C@H](CO)[C@@H](O)[C@H](O)[C@H]2O)[C@@H](O)[C@H](O)[C@H]1O` [CROCIN] here?
The value was 57.7%.

And the “inhibition (INH)” value (Liver [12])?
Its value is 53.1%.

And the “inhibition (INH)” value (Liver [13])?
Its value is 53.2%.

What about the “inhibition (INH)” value (Liver [14]) of the same molecule?
The value was 66.2%.

For `CC(=O)N[C@H]1[C@H](OC2CCCCC2)O[C@H](CO)[C@@H](O[C@@H]2O[C@H](CO)[C@@H](O[C@@H]3O[C@H](CO)[C@@H](O[C@@H]4O[C@H](CO)[C@@H](O[C@@H]5O[C@H](CO)[C@@H](O[C@@H]6O[C@H](CO)[C@@H](O)[C@H](O)[C@H]6NC(C)=O)[C@H](O)[C@H]5NC(C)=O)[C@H](O)[C@H]4NC(C)=O)[C@H](O)[C@H]3NC(C)=O)[C@H](O)[C@H]2NC(C)=O)[C@@H]1O`, which IC50 (Toll-like receptor 4 [15]) is on record?
Its IC50 is 0.15 µM.

With `COc1ccc(C[C@H]2COC(=O)[C@@H]2Cc2ccc(O[C@@H]3O[C@H](CO)[C@@H](O)[C@H](O)[C@H]3O)c(OC)c2)cc1OC` [ARCTIIN] as the molecule, how does the MIC [16] read?
Its MIC is ≤ 50 µM.

For `N/C(=N\c1ncc(C(=O)c2cc(Cl)ccc2O)cn1)Nc1ccc(F)cc1`, which IC50 (Toll-like receptor 4 [7]) is on record?
The IC50 was 40 µM.

For `CCCCCCCCCCCCCC(=O)N[C@H]1[C@H](OC(=O)CCC(=O)O)O[C@H](CO)[C@@H](OC(=O)CCC(=O)O)[C@@H]1OC(=O)CCCCCCCCCCCCC`, which IC50 (Toll-like receptor 4 [4]) is on record?
The IC50 was 5.91 µM.

For `CCOC(=O)C1=C[C@@H](O)CC[C@H]1S(=O)(=O)Cc1ccc(F)cc1Cl`, which inhibition at 0.01 µM [17] is on record?
Its inhibition at 0.01 µM is 98%.

For `CCCCC/C=C\C/C=C\CCCCCCC(=O)N[C@H]1[C@H](OC(=O)CCC(=O)O)O[C@H](CO)[C@@H](OC(=O)CCC(=O)O)[C@@H]1OC(=O)CCCCCC/C=C\C/C=C\CCCCC`, which IC50 (Toll-like receptor 4 [4]) is on record?
The IC50 was 4.35 µM.
